Experiments:
[1] = cited from earlier work
[2] = tested on: hemorrhoid; test: injection of the solution into the hemorrhoid of patients; assay type: in vivo; conditions: injected into the hemorrhoid as water solution
Experimental: A chemical treatment for the permanent relief of hemorrhoids is provided by the chemical composition of this invention. The composition comprises a mixture of Yong Noe, a Chinese herb known to Western man as camphor, quinine, and distilled water. These two ingredients are ground into powder and dissolved in distilled water. The composition is then injected by a medical practitioner into the affected area at least once, and perhaps several times, over a two week period. After a period of time, the hemorrhoidal tissue will turn dark, harden, and flake off leaving the skin clear at the site of the former hemorrhoid. A mixture of Yong Noe and quinine in a […] in an amount of 37.5 grams are divided into 7 equal weight portions. Each portion of the mixture is dissolved in 4 grams of water by placing the composition in a container in boiling water for 3-5 minutes. The composition is a clear whitish solution. This solution is used at room temperature as the medicament for the treatment of hemorrhoids as will be discussed infra. […] The composition of 37.5 grams of solids is comprised of 25 grams of quinine and 12.5 grams of camphor. This mixture is equally divided and filled into seven different 10 cc vials, and 4 cc distilled water is added to each vial. […]

Compound | solubility [1] | result of injection into the hemorrhoid [2]
CC12CCC(CC1=O)C2(C)C (centres unmarked) [Camphor] | only slightly soluble in water | –
C=C[C@H]1C[N@@]2CC[C@H]1C[C@H]2[C@H](O)c1ccnc2ccc(OC)cc12 [quinine alone, quinine] | – | not effectual

Source: patent US6844356B2, “Hemorrhoid therapeutic treatment” (priority 2003, dated 2005)
